# ChEMBL document CHEMBL5352476, “A comprehensive overview of Artemisinin and its derivatives as anticancer agents” (Eur J Med Chem, 2023)
# Legend:
# HepG2 [1] = experiment: Antiproliferative activity against human HepG2 cells assessed as inhibition of cell growth incubated for 48 hrs by MTT assay; type: functional, cell-based; details: HepG2, 48 h
# HEK-293T = experiment: Antiproliferative activity against HEK293T cells assessed as inhibition of cell growth incubated for 48 hrs by MTT assay; type: functional, cell-based; details: Homo sapiens
# Calu-1 = experiment: Antiproliferative activity against human Calu-1 cells assessed as inhibition of cell growth incubated for 48 hrs by MTT assay; type: functional, cell-based; details: Calu-1, 48 h
# 786-0 = experiment: Antiproliferative activity against human 786-0 cells assessed as inhibition of cell growth incubated for 48 hrs by MTT assay; type: functional, cell-based; details: 786-0, 48 h
# SK-BR-3 = experiment: Antiproliferative activity against human SK-BR-3 cells assessed as inhibition of cell growth incubated for 48 hrs by MTT assay; type: functional, cell-based; details: SK-BR-3, 48 h
# SK-OV-3 = experiment: Antiproliferative activity against human SK-OV-3 cells assessed as inhibition of cell growth incubated for 48 hrs by MTT assay; type: functional, cell-based; details: SK-OV-3, 48 h
# HepG2 [2] = experiment: Potency index, ratio of vincristine IC50 to test compound IC50 for antiproliferative activity against human HepG2 cells assessed as inhibition of cell growth incubated for 48 hrs by MTT assay; type: functional
# [3] = Selectivity index, ratio of IC50 for antiproliferative activity against HEK293T cells to IC50 for antiproliferative activity against human HepG2 cells; type: toxicity, cell-based; details: HEK293T cells versus HepG2 cells, read-out: Ratio IC50
# HepG2 [4] = experiment: Antiproliferative activity against human HepG2 cells assessed as inhibition of cell growth by MTT assay; type: functional, cell-based
# PC-12 = experiment: Antiproliferative activity against PC-12 cells assessed as inhibition of cell growth incubated for 72 hrs by MTT assay; type: functional, cell-based; details: Rattus norvegicus, PC-12, 72 h
# MCF7 = experiment: Antiproliferative activity against human MCF7 cells assessed as inhibition of cell growth incubated for 72 hrs by MTT assay; type: functional, cell-based; details: MCF7, 72 h
# SH-SY5Y = experiment: Antiproliferative activity against human SH-SY5Y cells assessed as inhibition of cell growth incubated for 72 hrs by MTT assay; type: functional, cell-based
# U-87 MG = experiment: Antiproliferative activity against human U-87 MG cells assessed as inhibition of cell growth incubated for 72 hrs by MTT assay; type: functional, cell-based, U-87MG ATCC
# A549 [5] = experiment: Antiproliferative activity against human A549 cells assessed as inhibition of cell growth incubated for 72 hrs by MTT assay; type: functional, cell-based; details: A549, 72 h
# U-118-MG = experiment: Antiproliferative activity against human U-118-MG cells assessed as inhibition of cell growth incubated for 72 hrs by MTT assay; type: functional, cell-based
# HCT-116 = experiment: Antiproliferative activity against human HCT-116 cells assessed as inhibition of cell growth incubated for 72 hrs by MTT assay; type: functional, cell-based; details: HCT-116, 72 h
# [6] = Cytotoxicity against human L02 cells assessed as inhibition of cell growth incubated for 72 hrs by MTT assay; type: toxicity, cell-based
# RPMI-7951 = experiment: Antiproliferative activity against human RPMI-7951 cells assessed as inhibition of cell growth incubated for 24 hrs by MTT assay; type: functional, cell-based; details: RPMI-7951, 24 h
# HT-29 [7] = experiment: Antiproliferative activity against human HT-29 cells overexpressing carbonic anhydrase IX assessed as inhibition of cell growth incubated for 96 hrs under hypoxic condition by MTT assay; type: functional, cell-based; details: HT-29, 96 h
# [8] = Cytotoxicity against human MCF-10A cells assessed as inhibition of cell growth incubated for 96 hrs by MTT assay; type: toxicity, cell-based
# HT-29 [9] = experiment: Antiproliferative activity against human HT-29 cells assessed as inhibition of cell growth incubated for 96 hrs by MTT assay; type: functional, cell-based; details: HT-29, 96 h
# MDA-MB-231 [10] = experiment: Antiproliferative activity against human MDA-MB-231 cells assessed as inhibition of cell growth incubated for 96 hrs by MTT assay; type: functional, cell-based; details: MDA-MB-231, 96 h
# HeLa = experiment: Antiproliferative activity against human HeLa cells assessed as inhibition of cell growth incubated for 72 hrs by MTT assay; type: functional, cell-based
# HT-29 [11] = experiment: Antiproliferative activity against human HT-29 cells assessed as inhibition of cell growth incubated for 72 hrs by MTT assay; type: functional, cell-based; details: HT-29, 72 h
# NCI-H460 = experiment: Antiproliferative activity against human NCI-H460 cells assessed as inhibition of cell growth incubated for 72 hrs by MTT assay; type: functional, cell-based; details: NCI-H460, 72 h
# MDA-MB-231 [12] = experiment: Antiproliferative activity against human MDA-MB-231 cells assessed as inhibition of cell growth incubated for 72 hrs by MTT assay; type: functional, cell-based; details: MDA-MB-231, 72 h
# SK-MEL3 = experiment: Antiproliferative activity against human SK-MEL3 cells assessed as inhibition of cell growth incubated for 24 hrs by MTT assay; type: functional, cell-based; details: SK-MEL3, 24 h
# A549 [13] = experiment: Antiproliferative activity against human A549 cells assessed as inhibition of cell growth incubated for 96 hrs by MTT assay; type: functional, cell-based; details: A549, 96 h
# A549 [14] = experiment: Antitumor activity against human A549 cells xenografted in nude mouse assessed as tumor growth inhibition rate relative to control; type: functional
# [15] = Antiproliferative activity against mouse Lewis lung carcinoma cell line assessed as inhibition of cell growth incubated for 48 hrs by MTT assay; type: functional, cell-based
smiles,measurement,setting,value
C[C@H]1[C@H](N2CCN(P(=O)(OCc3cncs3)N(CCCCl)CCCCl)CC2)O[C@@H]2O[C@@]3(C)CC[C@H]4[C@H](C)CC[C@@H]1[C@@]24OO3 (some centres not stated),IC50,HepG2 [1],12.5 µM
same,IC50,HEK-293T,12.5 µM
same,IC50,Calu-1,12.5 µM
same,IC50,786-0,12.5 µM
same,IC50,SK-BR-3,12.5 µM
same,IC50,SK-OV-3,12.5 µM
same,Ratio IC50,HepG2 [2],7.4
same,selectivity ratio,[3],16
CCCCCCCCCCCCOC(=O)C[C@H]1O[C@@H]2O[C@@]3(C)CC[C@H]4[C@H](C)CC[C@@H]([C@H]1C)[C@@]24OO3,IC50,HepG2 [4],0.72 µM
C[C@@H]1CC[C@H]2[C@@H](C)C(N3CCN(C(=O)Oc4ccc(SC(F)(F)F)cc4)CC3)O[C@@H]3O[C@@]4(C)CC[C@@H]1[C@]32OO4 (some centres not stated),IC50,PC-12,≥ 0.12 µM
same,IC50,MCF7,≥ 0.12 µM
same,IC50,SH-SY5Y,≥ 0.12 µM
same,IC50,U-87 MG,≥ 0.12 µM
same,IC50,A549 [5],≥ 0.12 µM
same,IC50,U-118-MG,≥ 0.12 µM
same,IC50,HCT-116,0.12 µM
same,IC50 at 72 h,[6],12.5 µM
CCCCCCCCNC(=O)C[C@H]1O[C@@H]2O[C@@]3(C)CC[C@H]4[C@H](C)CC[C@@H]([C@H]1C)[C@@]24OO3,IC50,HepG2 [4],9.5 µM
C[C@H]1[C@H](OC(=O)CCC(=O)NCCc2ccc(OC(=O)CCC(=O)O[C@@H]3O[C@@H]4O[C@@]5(C)CC[C@H]6[C@H](C)CC[C@@H]([C@H]3C)[C@@]46OO5)cc2)O[C@@H]2O[C@@]3(C)CC[C@H]4[C@H](C)CC[C@@H]1[C@@]24OO3,IC50,RPMI-7951,2.45 µM
C[C@H]1[C@@H](OCCc2cn(-c3ccc(S(N)(=O)=O)cc3)nn2)O[C@@H]2O[C@@]3(C)CC[C@H]4[C@H](C)CC[C@@H]1[C@@]24OO3,IC50,HT-29 [7],0.65 µM
same,IC50 at 96 h,[8],78 µM
same,IC50,HT-29 [9],1.92 µM
same,IC50,MDA-MB-231 [10],1.92 µM
COc1ccc(OC)c(/C=C/C(=O)c2ccc(OCC(=O)N[C@@H]3O[C@@H]4O[C@@]5(C)CC[C@H]6[C@H](C)CC[C@@H]([C@H]3C)[C@@]46OO5)cc2)c1,IC50,HeLa,0.19 µM
same,IC50,HT-29 [11],0.19 µM
same,IC50,NCI-H460,0.19 µM
same,IC50,MDA-MB-231 [12],0.19 µM
CCCCCCCCCCCCC(=O)C[C@H]1O[C@@H]2O[C@@]3(C)CC[C@H]4[C@H](C)CC[C@@H]([C@H]1C)[C@@]24OO3,IC50,HepG2 [4],1.4 µM
COc1cc(/C=C\C(=O)CC(=O)/C=C\c2ccc(OC(=O)O[C@@H]3O[C@@H]4O[C@@]5(C)CC[C@H]6[C@H](C)CC[C@@H]([C@H]3C)[C@@]46OO5)c(OC)c2)ccc1OC(=O)CCC(=O)O[C@@H]1O[C@@H]2O[C@@]3(C)CC[C@H]4[C@H](C)CC[C@@H]([C@H]1C)[C@@]24OO3,IC50,SK-MEL3,3 µM
COc1ccc(OC)c(/C=C/C(=O)c2ccc(OCC(=O)N[C@H]3O[C@@H]4O[C@@]5(C)CC[C@H]6[C@H](C)CC[C@@H]([C@H]3C)[C@@]46OO5)cc2)c1,IC50,HeLa,0.12 µM
same,IC50,HT-29 [11],0.12 µM
same,IC50,NCI-H460,0.12 µM
same,IC50,MDA-MB-231 [12],0.12 µM
C[C@@H]1CC[C@H]2[C@@H](C)C(=O)O[C@@H]3O[C@@]4(C)CC[C@@H]1[C@]32OO4 [ARTEMISININ],IC50,HepG2 [4],97 µM
C[C@H]1[C@@H](O)O[C@@H]2O[C@@]3(C)CC[C@H]4[C@H](C)CC[C@@H]1[C@@]24OO3 [ARTENIMOL],IC50,A549 [13],0.23 µM
same,inhibition (INH),A549 [14],54.3%
same,IC50,[15],53.1 µM
